From US20220089540A1 (Board of Trustees of Michigan State University, priority 2019, published 2022)
“And” between values parts separate entries of the source, which are not always exact repeats. Equal values may be shown once. Read-outs that look alike come from different tables or passages of the source.

Columns and labels:
LogD at pH 7.4 = format: physicochemical; conditions: pH 7.4 buffer
Experimental: Note that for Table 6, Log D is the distribution constant, which is descriptor of the lipophilicity of a molecule. This was determined using an aqueous phase that was adjusted to pH 7.4 using a buffer.

[1] = tested on: mammary gland tumors of MMTV-Neu mice; experiment: MMTV-Neu mouse model of HER2 positive breast cancer, rexinoid in diet; conditions: 100 mg/kg diet; LG268 5 days, CW-V-125 10 days; western blot and/or immunohistochemistry
Experimental: Tumors or mammary glands were homogenized in EBC buffer (1M Tris pH 8, 5M NaCl) with the same protease inhibitors and 10% NP-40 and incubated on ice for 30 min. Protein concentrations were determined by the BCA assay (Sigma-Aldrich). Proteins were resolved by SDS-PAGE, transferred to a nitrocellulose membrane and analyzed with the following antibodies: vinculin, p-STAT1, p-STAT3, p-STAT5 and mouse and rabbit secondary antibodies (Cell Signaling); PD-1, CD206 (Abcam); PD-L1 (R&D). ImageJ was used to quantify the immunoblots, and results were plotted and statistically analyzed using Prism 6. All images shown are representative of 3 independent experiments.
One third of the tumor, mammary gland and spleen removed from MMTV-neu or MMTV-PyMT mice were minced separately and incubated in digestion media consisting of collagenase (300 U/ml, Sigma), dispase (1 U/ml, Worthington), and DNAse (2 U/ml, Calbiochem) for 30 minutes at 37° C. with stirring. Cells were then passed through a 40 μm cell strainer (BD Falcon), and red blood cells eliminated with lysis solution. […] Propidium iodide staining was used to exclude dead cells.
One third of the tumor, spleen and one mammary was removed from MMTV-neu and PyMT mice and fixed in 10% phosphate-buffered formalin for 48 hours, embedded in paraffin blocks, and sectioned (5-6 μm). Hydrogen peroxide was used to quench endogenous peroxidase activity. Sections were immunostained with antibodies raised against CD206 (1:200, Abcam), Gr1 (1:40, BM8, R&D), CD8 (1:40, Biolegend), FOXP3 (1:50, EBiosciences), PD-1 (1:100, Abcam), PD-L1 (1:50, Abcam), cleaved caspase 3 (Cell Signaling) and visualized with biotinylated anti-rabbit or anti-rat secondary antibodies (Cell Signaling or Vector Labs). Signal was detected using a DAB substrate (Cell Signaling) following the manufacturer's recommendations. Sections were counterstained with hematoxylin (Vector Labs).
Both rexinoid treatments were 100 mg/kg of diet, which is equivalent to 25 mg/kg of body weight (FIG. 1B).

PD-L1 = PD-L1 induction in macrophages or RAW264.7 cells with cancer cell conditioned media (flow cytometry); format: cell-based, mouse; conditions: for PD-L1 Levels: Table 4, Control 43.3; for PD-L1: Table 2, Control 39.8, higher numbers indicate better upregulation
Experimental: RAW 264.7 mouse macrophage-like (ATCC) and E18-14C-27 (Wu et al., Cancer Res. 62, 6376-6380 (2002)) cells were cultured in DMEM supplemented with 10% fetal bovine serum (FBS). RAW 264.7 cells were cultured at 50000/well in a 6 well plate for 24 hours to determine PD-L1 levels. E18-14C-27 cells were cultured for 72 hours in the presence of LG268 for protein levels. Conditioned media was collected from E18-14C-27 at 60-70% confluence for 24 hours; media was then collected and centrifuged at 900 rpm for 5 minutes to eliminate any cell debris.
For PD-L1 staining, RAW 264.7 cells were plated at 25000 cells/ml in 6 well plates for 24 hours before adding conditioned media from E18-14C-27 and LG268. RAW 264.7 cells were cultured for additional 24 hours with E18-14C-27 conditioned media and LG268. […] THP-1 cells were stained and analyzed for the levels of PD-L1 following the same protocol.
Inhibitory receptors on lymphocytes such as PD-1 (programmed cell death protein 1) are important immune checkpoints that protect against autoimmunity as the interaction between PD-L1 (ligand) and the PD-1 receptor expressed on immune cells suppresses T cell activity. Immuno-oncology is revolutionizing cancer treatment, and enormous research efforts are ongoing to identify drugs that upregulate PD-L1 so that they can be combined with checkpoint inhibitors to boost efficacy. Macrophages or RAW264.7 cells are treated with conditioned media from cancer cells and rexinoids, and PD-L1 expression determined by flow cytometry. Higher numbers indicate better upregulation of PD-LI.
Using methods described herein, macrophages or RAW264.7 cells were treated with selected rexinoids and with conditioned media from cancer cells. Structures of the rexinoids are shown below.
PD-L1 expression was determined by flow cytometry.

human RXRa = target: T1, human RXRa (Homo sapiens, UniProt P19793); experiment: RXR activation luciferase reporter assay; format: cell-based; conditions: luciferase, Control 0, higher numbers indicate higher potency
T1 sequence (P19793 1-462): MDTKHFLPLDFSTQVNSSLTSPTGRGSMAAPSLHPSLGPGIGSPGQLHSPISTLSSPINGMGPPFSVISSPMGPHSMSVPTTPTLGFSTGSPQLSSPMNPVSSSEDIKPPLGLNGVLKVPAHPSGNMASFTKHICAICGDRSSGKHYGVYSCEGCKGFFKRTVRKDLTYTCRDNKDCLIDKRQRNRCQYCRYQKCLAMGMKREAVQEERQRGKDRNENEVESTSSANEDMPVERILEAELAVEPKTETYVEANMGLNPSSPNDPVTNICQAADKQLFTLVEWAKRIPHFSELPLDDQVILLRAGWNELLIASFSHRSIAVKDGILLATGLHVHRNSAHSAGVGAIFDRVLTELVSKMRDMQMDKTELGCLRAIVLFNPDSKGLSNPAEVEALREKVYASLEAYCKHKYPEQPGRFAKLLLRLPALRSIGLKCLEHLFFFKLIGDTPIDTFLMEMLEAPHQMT
Excerpt: Rexinoids are agonists for the retinoid X receptors (RXRs). In this assay, the human RXRa promoter is functionally linked to a luciferase reporter gene. Changes in luciferase expression served as a sensitive surrogate measure of RXR activity. Higher numbers indicate higher potency.

SREBP = SREBP induction in human liver (HepG2) cells, RT-PCR; format: cell-based; parameters: key to SREBP: fold induction vs DMSO control; conditions: for SREBP: 300 nM, Control 1.00, lower numbers indicate better safety, Table 2
Experimental: The SREBP transcription factor is involved in triglyceride synthesis, and its activation correlates with increased triglycerides in vivo. […] Lower numbers indicate better safety. […] Lower numbers indicate better safety. Also, for Table 6, SREBP activation was measured as fold induction compared to DMSO, where a lower value indicates the compound is an improvement over a control.

[2] = tested on: inducible nitric oxide synthase (iNOS); experiment: iNOS suppression / NO assay in LPS-stimulated macrophages or RAW264.7 cells (Griess reaction); format: cell-based, mouse; conditions: for activity at 0.3 µM / activity at 0.125 µM / activity at 0.5 µM: Mus musculus; for activity at 0.3 µM: RAW264.7, 24 h
Experimental: Macrophages or RAW264.7 like-cells were treated with various concentrations of rexinoids and stimulated with lipopolysaccaride (LPS) to activate inducible nitric oxide synthase (iNOS) to produce nitric oxide. This in vitro iNOS assay was rapid, reproducible, quantitative and predictive. Nitric oxide is implicated in the apoptosis of cancer cells via regulation of RXRs. There is a tight correlation between the % reduction of iNOS and efficacy in preclinical lung cancer models. Lower numbers indicate higher efficacy.
RAW264.7 cells were incubated with 300 nM rexinoids and stimulated with 1-2 ng/ml lipopolysaccaride (LPS) for 24 hours to activate inducible nitric oxide synthase (iNOS) to produce nitric oxide. Nitric oxide released into the media was measured by the Griess reaction.
Also, for Table 6, the iNOS suppression is the percent of the LPS-stimulated control where the compounds were measured at 100 nM or 300 nM.
Macrophages or RAW264.7 cells were treated with various concentrations of rexinoids listed in Table 7 and stimulated with lipopolysaccaride (LPS) to activate inducible nitric oxide synthase (iNOS) to produce nitric oxide. Nitric oxide (NO) is implicated in the apoptosis of cancer cells via regulation of RXRs. There is a tight correlation between the % reduction of iNOS and efficacy in preclinical lung cancer models. The in vitro iNOS assay is rapid, reproducible, quantitative and predictive, as NO production is measured in culture medium using the Griess reaction. Values are either presented as % inhibition or IC50 values.

[3] = RAW264.7, 125 nM, Control 100, lower numbers indicate higher efficacy, read-out: NO Assay
[4] = RAW264.7, 500 nM, Control 100, lower numbers indicate higher efficacy, read-out: NO Assay

Structure (SMILES)	RXR assay (human RXRa; 100 nM)	RXR assay (human RXRa; 2500 nM)	SREBP (SREBP)	activity at 0.125 µM ([2]; RAW264.7, read-out: NO Assay)	activity at 0.5 µM ([2]; RAW264.7, read-out: NO Assay)	PD-L1 (PD-L1; 100 nM)	also measured
CC(C)(C)c1cc(C(C)(C)C)cc(C2(c3ccc(C(=O)O)cn3)CC2)c1							logD (LogD at pH 7.4): 2.8
Cc1cc(OCC(C)C)c(C(C)C)cc1C1(c2ccc(C(=O)O)cn2)CC1							logD (LogD at pH 7.4): 2.6
CCN(c1ccc(C(=O)O)cn1)c1cc2c(cc1C)C(C)(C)CCC2(C)C [CW-V-125]							PD-L1 expression in tumors vs control [1]: increases; PD-L1 Levels (PD-L1; 100 nM): 72.5; PD-L1 Levels (PD-L1; 1000 nM): 69.9
CCN(c1ccc2c(c1)C(C)(C)CCC2(C)C)c1ncc(C(=O)O)cn1 [CW-V-127]							PD-L1 Levels (PD-L1; 100 nM): 65.1; PD-L1 Levels (PD-L1; 1000 nM): 64.5
C=C(c1ccc(C(=O)O)cc1)c1cc(C(C)(C)C)cc(C(C)(C)C)c1 [Compound 3, 4-[1-(3,5-di-tert-butylphenyl)ethenyl]benzoic Acid]	523	8163	1.14	42.5%	19.8%	26.5	activity at 0.3 µM ([2]; read-out: iNOS (300 nM)): ~65%
CC(C)(C)c1cc(-n2c(C(F)(F)F)nc3cc(C(=O)O)ccc32)cc(C(C)(C)C)c1 [Compound 7, 1-(3,5-di-tert-butylphenyl)-2-(trifluoromethyl)-1H-1,3-benzodiazole-5-carboxylic Acid]			1.57	38.7%	23.6%	44.2	activity at 0.3 µM ([2]; read-out: iNOS (300 nM)): 55%
CCN(c1ccc(C(=O)O)cc1)c1cc(C(C)(C)C)cc(C(C)(C)C)c1 [Compound 8, 4-[(3,5-di-tert-butylphenyl)(ethyl)amino]benzoic Acid]	1009	23514	1.95	> 80%	31.5%	31.2	
CCN(c1cc(C(C)(C)C)cc(C(C)(C)C)c1)c1ccc(C(=O)O)cn1 [Compound 9, 6-[(3,5-di-tert-butylphenyl)(ethyl)amino]pyridine-3-carboxylic Acid]			2.70	76.3%	26.8%	39.7	activity at 0.3 µM ([2]; read-out: iNOS (300 nM)): ~25%
CCN(c1cc(C(C)(C)C)cc(C(C)(C)C)c1)c1ncc(C(=O)O)cn1 [Compound 10, 2-[(3,5-di-tert-butylphenyl)(ethyl)amino]pyrimidine-5-carboxylic Acid]	1007	17963	1.44	48.6%	19%	32	
CCN(c1ccc(C(=O)O)cn1)c1cc(C(C)(C)C)ccc1C [Compound 12, 6-[(5-tert-butyl-2-methylphenyl)(ethyl)amino]pyridine-3-carboxylic Acid]			1.69	44.2%	16.7%	45.8	
CCCN(c1cc(C(C)(C)C)cc(C(C)(C)C)c1)c1ccc(C(=O)O)cn1 [Compound 13, 6-[(3,5-di-tert-butylphenyl)(propyl)amino]pyridine-3-carboxylic Acid]	16063	26703	2.44			67.9	activity at 0.125 µM [2, 3]: 94.5%; activity at 0.5 µM [2, 4]: 32%
CC(C)(C)c1cc(N(CC2CC2)c2ccc(C(=O)O)cn2)cc(C(C)(C)C)c1 [Compound 14, 6-[(cyclopropylmethyl)(3,5-di-tert-butylphenyl)amino]pyridine-3-carboxylic Acid]			2.37	78.2%	25.9%	46.2	
CCN(c1cc(C(F)(F)F)cc(C(F)(F)F)c1)c1ccc(C(=O)O)cn1 [Compound 15, 6-{[3,5-bis(trifluoromethyl)phenyl](ethyl)amino}pyridine-3-carboxylic Acid]			1.11	87%	27.9%	34.8	
CCCCN(c1cc(C(C)(C)C)cc(C(C)(C)C)c1)c1ccc(C(=O)O)cn1 [Compound 19]	13422	24350	4.77			50.2	activity at 0.125 µM [2, 3]: 45.6%; activity at 0.5 µM [2, 4]: 9.4%
C/C(=C/C=C/C(C)=C/C(=O)O)c1cc(C(C)(C)C)cc(C(C)(C)C)c1OCC(F)F [LG101506, reference compound]	1077	558	1.12			67.2	NO Assay ([2]; 125 nM, Control 100, lower numbers indicate higher efficacy): 56.3; NO Assay ([2]; 500 nM, Control 100, lower numbers indicate higher efficacy): 16.3
CC(/C=C/[C@@H]1C[C@]1(C)c1ccc2c(c1)C(C)(C)CCC2(C)C)=C\C(=O)O [VTP194204]							PD-L1 Levels (PD-L1; 100 nM): 63.8; PD-L1 Levels (PD-L1; 1000 nM): 70.9
CCN(c1ccc(C(=O)O)cn1)c1cc(C(C)(C)C)ccc1C [drawing 112]							SREBP activation (SREBP; fold induction compared to DMSO, several values per cell, Table 6): 2.7 fold induction and 2.2 fold induction; activity at 0.3 µM ([2]; at 300 nM, percent of the LPS-stimulated control, lower is better, Table 6, read-out: iNOS suppression): 60%
